These results are taken from patent publication US20120309798A1, “Tumour Treatment Agents and Method” (Vivolux AB, priority 2009, published 2012).

pIC50: −log10 of the molar value. Read-outs that look alike come from different tables or passages of the source.

The test system of data set [1] is Renal cancer patient tumor cells. Put plainly: FMCA, patient tumor samples, renal cancer. It counts as cell-based. To be noted: Homo sapiens. From the text:
(§1) Cell culture. Patient tumor samples (98) and preparations (4) of normal peripheral blood mononuclear cells (PBMC), detailed in Table 1, were used to determine the activity of VLX50 and, for comparison, six other cytotoxic drugs chosen to represent different mechanistic classes.
(§2) The tumor samples were obtained by bone marrow/peripheral blood sampling, routine surgery or diagnostic biopsy. Leukemic cells and PBMCs were isolated by 1.077 g ml-1 Ficoll-Paque centrifugation (Larsson et al., 1992). Tumor tissue from solid tumor samples was minced into small pieces and tumor cells were isolated by collagenase dispersion followed by Percoll density gradient centrifugation (Csoka et al., 1994). […] Cell viability was determined by trypan blue exclusion test and the proportion of tumor cells in the preparation was judged by inspection of May-Grunvald-Giemsa stained cytospin slides (FIG. 1a). […]
(§3) Fluorometric Microculture Cytotoxicity Assay. The Fluorometric Microculture Cytotoxicity Assay, FMCA, described in detail previously (Lindhagen et al., 2008), is based on measurement of fluorescence generated from hydrolysis of fluorescein diacetate (FDA) to fluorescein by cells with intact plasma membranes. […] Quality criteria for a successful assay included a mean coefficient of variation of less than 30% in the control and a fluorescence signal in control wells of more than 5 times the blank. […]

Data set [2] has as its system Breast cancer patient tumor cells. Put plainly: FMCA, patient tumor samples, breast cancer. It counts as cell-based. The settings on record: Homo sapiens.
From the text: as §1, §2, §3

For data set [3], the system named is CML (Chronic Myelocytic Leukemia) patient tumor cells. Put plainly: FMCA, patient tumor samples, CML. The data set is classed as cell-based. To be noted: Homo sapiens.
From the text: as §1, §2, §3

The nature of data set [4]: Weight gain and hematological parameters of treated mice. The settings on record: single dose 760 μg/mouse s.c. It counts as in vivo, NMRI male mice. As for the experimental part:
In vivo studies. Cells from two ovarian carcinoma patients and the cell line CEM were cultured inside semi-permeable polyvinylidene fluoride fibers and assessed by the hollow fiber assay (Friberg et al., 2005; Jonsson et al., 2000). The fibers were implanted subcutaneously into NMRI male mice (Scanbur, Sollentuna Sweden), which were treated with a single dose (0.76 mg/mouse) of VLX50 subcutaneously, or vehicle only (n=animals/group). Fibers were retrieved after 6 days and cell density evaluated (FIG. 3a) using the MTT (3-[4,5-dimethylthiazol-2-yl]-2,5-diphenyltetrazolium bromide)-assay (Alley et al. 1988). The method is based on the conversion of MTT to blue formazan crystals by living cells. The formazan was extracted by DMSO as previously described (Jonsson et al. 2000), and optical density (OD) read at 570 nm. Cell density for each fiber on retrieval day was expressed as net growth, defined as (OD retrieval day—OD implantation day)/OD implantation day, i.e. the percent change in cell density in the fibers during the 6 days of in vivo experiment. The animals were observed regarding behavior and weight gain throughout the experiment. Blood samples (200 μl) were obtained through the orbital plexus after anesthetization with isofluran just before euthanasia, and analyzed for hematological parameters. Four animals were caged per cage and fed a commercial diet (Lactamin AB, Sweden), water being given ad libitum.
In vivo activity in PHTC cultures of ovarian carcinoma. Activity in vivo was determined in hollow fiber cultures of PHTC from ovarian carcinoma patients subcutaneously implanted in mice (FIG. 3a; n=8 each in test and control groups). […] There was no difference in WBC, RBC, and hemoglobin values (FIG. 3c).

For data set [5], the system named is BNIP and Ndrg-1 expression. In words: Gene expression analysis of drug treated tumor cell cultures. It counts as cell-based. To be noted: HIF1 alfa dependent genes. The method, then: Mechanism of action. Mechanistic exploration was performed using gene expression analysis of drug treated tumor cell cultures to generate a drug specific signature. The breast cancer cell line MCF-7 was treated with VLX50 or vehicle (DMSO) and analyzed for gene expression using the Affymetrix U1300plus chip. […] This query signature was subsequently submitted to the GSEA and the Connectivity map databases and strong connections to hypoxia inducible factor (HIF1 alfa) and iron chelators were retrieved. […] The mechanism was confirmed by direct measurements of drug induced decrease in intracellular iron concentration (FIG. 6b).

Data set [6] deals with Lung cancer patient tumor cells. In words: FMCA, patient tumor samples, lung cancer. The data set is classed as cell-based. To be noted: Homo sapiens.
From the text: as §1, §2, §3

The mark [7] stands for this setting: n=7, 72 h FMCA, read-out: Median IC50.
Setting [8] is: range over n=7 samples, read-out: IC50 Range.

In the case of `COCCCNC(=S)N/N=C\c1ccccn1` [VLX50, N1-(3-methoxypropyl)-2-(pyridylmethylidene)-hydrazine-1-carbothioamide], the pIC50 in data set [1] (setting [7]) is less than 4.40; in data set [1] (setting [8]), 4.40 to 4.62; in data set [2] (setting [7]), 5.08; in data set [2] (setting [8]) it was 4.40 to 6.06; in data set [3] (n=3, 72 h FMCA, read-out: Median IC50), 5.29; in data set [3] (range over n=3 samples, read-out: IC50 Range) it was 5.19 to 5.68. The negative logarithm of the IC50 (pIC50) in data set [6] (n=6, 72 h FMCA, read-out: Median IC50) was 4.87; in data set [6] (range over n=6 samples, read-out: IC50 Range), 4.40 to 6.29. In data set [4], the Hemoglobin values result was “no difference”. In data set [4], the RBC result is listed as “no difference”. In addition, in data set [4], the WBC entry is reported as “no difference”. In addition, in data set [4] (P<0.05), the Platelet counts result was “significant decrease”. The “Weight gain compared to the control group” value in data set [4] (P<0.05) is listed as “small but significant reduction”. The “Expression of BNIP and Ndrg-1” value in data set [5] is “significantly increasing”.

A word on the pIC50: it is the IC50 on a negative log10 scale, so that one unit is a factor of ten.
